Laboratory results as given in US10941152B2, “Pyrazole compounds as modulators of FSHR and uses thereof” (TOCOPHERX, INC., priority 2014, dated 2021).

How the values were obtained:
[1] = biological target: T1, follicle-stimulating hormone (FSH) receptor (Rattus norvegicus, UniProt P20395); experiment: Rat granulosa EC50 FSH (Assay B); format: cell-based
T1 construct: endogenous in cells; host or cells: rat granulosa cells
T1 sequence (P20395 18-692): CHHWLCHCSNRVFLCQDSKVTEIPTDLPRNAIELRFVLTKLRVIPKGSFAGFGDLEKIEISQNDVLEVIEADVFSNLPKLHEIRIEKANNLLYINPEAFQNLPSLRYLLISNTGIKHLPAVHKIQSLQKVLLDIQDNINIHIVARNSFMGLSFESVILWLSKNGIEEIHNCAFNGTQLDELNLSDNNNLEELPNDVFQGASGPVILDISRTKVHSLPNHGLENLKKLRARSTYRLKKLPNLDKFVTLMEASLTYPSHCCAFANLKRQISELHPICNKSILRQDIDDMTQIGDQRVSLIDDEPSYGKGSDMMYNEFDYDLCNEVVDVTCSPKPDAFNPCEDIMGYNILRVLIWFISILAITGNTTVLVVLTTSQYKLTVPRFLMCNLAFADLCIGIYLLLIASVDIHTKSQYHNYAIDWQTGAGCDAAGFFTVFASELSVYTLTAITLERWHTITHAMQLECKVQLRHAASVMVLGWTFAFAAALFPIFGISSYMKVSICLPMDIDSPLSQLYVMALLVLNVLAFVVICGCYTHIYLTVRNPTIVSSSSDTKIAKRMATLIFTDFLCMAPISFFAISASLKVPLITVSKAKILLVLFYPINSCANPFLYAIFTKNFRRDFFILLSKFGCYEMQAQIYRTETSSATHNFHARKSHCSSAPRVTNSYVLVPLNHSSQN
Protocol: Example 25. Rat granulosa EC50 FSH (Assay B)
The assay was performed pursuant to the teaching of Yanofsky et al. (2006) Allosteric activation of the follicle-stimulating hormone (FSH) receptor by selective, nonpeptide agonists (JBC 281(19): 13226-13233, which is incorporated by reference in the disclosure of the invention).

[2] = biological target: T2, FSHR (Homo sapiens, UniProt P23945); experiment: EC50 of cyclic AMP production in CHO FSHR cells + EC20 FSH (Assay A); format: cell-based; details: cyclic AMP production in CHO FSHR cells + EC20 FSH (0.265 pM), HTRF
T2 construct: expressed in transfected cells; host or cells: CHO (Cho-FSHR-LUC-1-1-43)
T2 sequence (P23945 18-695): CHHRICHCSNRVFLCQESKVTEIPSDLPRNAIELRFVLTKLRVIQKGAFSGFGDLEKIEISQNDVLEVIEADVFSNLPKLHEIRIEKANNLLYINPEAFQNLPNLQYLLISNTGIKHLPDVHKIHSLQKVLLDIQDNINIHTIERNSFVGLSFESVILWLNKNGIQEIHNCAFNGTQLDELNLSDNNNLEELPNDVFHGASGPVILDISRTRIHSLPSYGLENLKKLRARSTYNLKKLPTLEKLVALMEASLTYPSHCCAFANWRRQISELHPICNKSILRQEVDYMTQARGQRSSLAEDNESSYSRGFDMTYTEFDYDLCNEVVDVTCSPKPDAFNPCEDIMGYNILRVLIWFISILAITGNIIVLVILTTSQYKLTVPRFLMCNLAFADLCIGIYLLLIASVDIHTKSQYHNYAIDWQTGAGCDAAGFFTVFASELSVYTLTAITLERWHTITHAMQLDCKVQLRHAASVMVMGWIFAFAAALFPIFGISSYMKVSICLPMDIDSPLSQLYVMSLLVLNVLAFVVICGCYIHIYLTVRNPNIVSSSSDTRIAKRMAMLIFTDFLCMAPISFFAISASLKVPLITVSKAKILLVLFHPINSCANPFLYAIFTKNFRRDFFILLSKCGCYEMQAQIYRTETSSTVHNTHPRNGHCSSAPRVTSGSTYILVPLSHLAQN
Procedure, shortened: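 cAMP was detected by HTRF as the 665/620 nm ratio. The CHO-FSHR cells had first been exposed for 1 h at 37° C to test compound together with 0.265 pM FSH (EC20) and 200 μM IBMX. Responses are given as percent of the FSH standard maximum.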

Row | Compound | EC50 [1] [nM] | EC50 [2] [nM]
1 | COc1cc2c(cc1-c1cc(F)cc(C(=O)O)c1)-c1c(c(C(=O)N(C)C(C)(C)C)nn1-c1cc(Cl)cc(Cl)c1)CO2 [Compound 83, 3-(3-(tert-butyl(methyl)carbamoyl)-1-(3,5-dichlorophenyl)-7-methoxy-1,4-dihydrochromeno[4,3-c]pyrazol-8-yl)-5-fluorobenzoic acid] | 101 to 500 | < 10
2 | COc1cc2c(cc1-c1ccn(C)n1)-c1c(c(C(=O)N3C[C@H](O)[C@H](O)CC3(C)C)nn1-c1ccsc1)CO2 [Compound 130, ((4R,5S)-4,5-dihydroxy-2,2-dimethylpiperidin-1-yl)(7-methoxy-8-(1-methyl-1H-pyrazol-3-yl)-1-(thiophen-3-yl)-1,4-dihydrochromeno[4,3-c]pyrazol-3-yl)methanone] | 101 to 500 | 10 to 100
3 | COc1cc2c(cc1-c1ccccc1F)-c1c(c(C(=O)N(C)C(C)(C)C)nn1-c1ccsc1)CO2 [Compound 63, N-tert-butyl-8-(2-fluorophenyl)-7-methoxy-N-methyl-1-(thiophen-3-yl)-1,4-dihydrochromeno[4,3-c]pyrazole-3-carboxamide] | 101 to 500 | 10 to 100
4 | COc1cc2c(cc1-c1cc(C(N)=O)ncc1F)-c1c(c(C(=O)N(C)C(C)(C)C#N)nn1-c1cc(F)cc(F)c1)CO2 [Compound 109, 8-(2-carbamoyl-5-fluoropyridin-4-yl)-N-(2-cyanopropan-2-yl)-1-(3,5-difluorophenyl)-7-methoxy-N-methyl-1,4-dihydrochromeno[4,3-c]pyrazole-3-carboxamide] | 10 to 100 | < 10
5 | COc1cc(Cl)cc(-n2nc(C(=O)N(C)C(C)(C)C)c3c2-c2cc(-c4cnn(CCO)c4)c(OC)cc2OC3)c1 [Compound 79, N-tert-butyl-1-(3-chloro-5-methoxyphenyl)-8-(1-(2-hydroxyethyl)-1H-pyrazol-4-yl)-7-methoxy-N-methyl-1,4-dihydrochromeno[4,3-c]pyrazole-3-carboxamide] | 101 to 500 | 10 to 100
6 | COc1cc2c(cc1-c1cc(F)cc(C(N)=O)c1)-c1c(c(C(=O)N(C)C(C)(C)C)nn1-c1cc(Cl)cc(Cl)c1)CO2 [Compound 97, N-tert-butyl-8-(3-carbamoyl-5-fluorophenyl)-1-(3,5-dichlorophenyl)-7-methoxy-N-methyl-1,4-dihydrochromeno[4,3-c]pyrazole-3-carboxamide] | < 10 | < 10
7 | COc1cc(Cl)cc(-n2nc(C(=O)N(C)C(C)(C)C)c3c2-c2cc(-c4cnn(CC(=O)O)c4)c(OC)cc2OC3)c1 [Compound 85, 2-(4-(3-(tert-butyl(methyl)carbamoyl)-1-(3-chloro-5-methoxyphenyl)-7-methoxy-1,4-dihydrochromeno[4,3-c]pyrazol-8-yl)-1H-pyrazol-1-yl)acetic acid] | > 500 | 10 to 100
8 | COc1cc2c(cc1-c1cnn(CC(=O)N3CCC3)c1)-c1c(c(C(=O)N(C)C(C)(C)C)nn1-c1cc(Cl)cc(Cl)c1)CO2 [Compound 95, 8-(1-(2-(azetidin-1-yl)-2-oxoethyl)-1H-pyrazol-4-yl)-N-tert-butyl-1-(3,5-dichlorophenyl)-7-methoxy-N-methyl-1,4-dihydrochromeno[4,3-c]pyrazole-3-carboxamide] | 10 to 100 | 10 to 100
9 | CNC(=O)Cn1nc(C)c(-c2cc3c(cc2OC)OCc2c(C(=O)N(C)C(C)(C)C)nn(-c4cc(Cl)cc(Cl)c4)c2-3)c1C [Compound 140] | 101 to 500 | < 10
10 | COc1cc2c(cc1-c1ccn(C)n1)-c1c(c(C(=O)N3CCC(O)CC3(C)C)nn1-c1ccsc1)CO2 (centres unmarked) [Compound 57, (4-hydroxy-2,2-dimethylpiperidin-1-yl)(7-methoxy-8-(1-methyl-1H-pyrazol-3-yl)-1-(thiophen-3-yl)-1,4-dihydrochromeno[4,3-c]pyrazol-3-yl)methanone] | 101 to 500 | 10 to 100
11 | COc1cc2c(cc1-c1c(C)nn(CC(=O)N(C)C)c1C)-c1c(c(C(=O)N(C)C(C)(C)C)nn1-c1cc(Cl)cc(Cl)c1)CO2 [Compound 136, N-tert-butyl-1-(3,5-dichlorophenyl)-8-(1-(2-(dimethylamino)-2-oxoethyl)-3,5-dimethyl-1H-pyrazol-4-yl)-7-methoxy-N-methyl-1,4-dihydrochromeno[4,3-c]pyrazole-3-carboxamide] | 10 to 100 | < 10
12 | COc1cc2c(cc1-c1cnn(CC(O)CO)c1)-c1c(c(C(=O)N(C)C(C)(C)C)nn1-c1cc(Cl)cc(Cl)c1)CO2 (single isomer, unassigned) [Compound 191, N-tert-butyl-1-(3,5-dichlorophenyl)-8-(1-(2,3-dihydroxypropyl)-1H-pyrazol-4-yl)-7-methoxy-N-methyl-1,4-dihydrochromeno[4,3-c]pyrazole-3-carboxamide] | 101 to 500 | 10 to 100
13 | COc1cc2c(cc1-c1cncc(S(N)(=O)=O)c1)-c1c(c(C(=O)N(C)C(C)(C)C)nn1-c1cc(Cl)cc(Cl)c1)CO2 [Compound 66, N-tert-butyl-1-(3,5-dichlorophenyl)-7-methoxy-N-methyl-8-(5-sulfamoylpyridin-3-yl)-1,4-dihydrochromeno[4,3-c]pyrazole-3-carboxamide] | 10 to 100 | < 10
14 | COc1cc(-c2cc3c(cc2OC)OCc2c(C(=O)N(C)C(C)(C)C)nn(-c4cc(Cl)cc(Cl)c4)c2-3)cc(C(N)=O)n1 [Compound 117, N-tert-butyl-8-(2-carbamoyl-6-methoxypyridin-4-yl)-1-(3,5-dichlorophenyl)-7-methoxy-N-methyl-1,4-dihydrochromeno[4,3-c]pyrazole-3-carboxamide] | 10 to 100 | < 10
15 | COc1cc2c(cc1-c1cc(C#N)c[n+]([O-])c1)-c1c(c(C(=O)N3CCOCC3(C)C)nn1-c1cc(Cl)cc(Cl)c1)CO2 [Compound 177] | 10 to 100 | < 10
16 | COc1cc2c(cc1-c1ccnc(C#N)c1)-c1c(c(C(=O)N(C)C(C)(C)C)nn1-c1cc(Cl)cc(Cl)c1)CO2 [Compound 21, N-tert-butyl-8-(2-cyanopyridin-4-yl)-1-(3,5-dichlorophenyl)-7-methoxy-N-methyl-1,4-dihydrochromeno[4,3-c]pyrazole-3-carboxamide] | 10 to 100 | < 10
17 | COc1cc2c(cc1-c1ccn(C)n1)-c1c(c(C(=O)N(C)C(C)(C)C)nn1-c1cc(Cl)cc(Cl)c1)CO2 [Compound 4, N-tert-butyl-1-(3,5-dichlorophenyl)-7-methoxy-N-methyl-8-(1-methyl-1H-pyrazol-3-yl)-1,4-dihydrochromeno[4,3-c]pyrazole-3-carboxamide] | > 500 | 10 to 100
18 | COc1cc(OC)cc(-n2nc(C(=O)N(C)C(C)(C)C)c3c2-c2cc(-c4nn(C)cc4Br)c(OC)cc2OC3)c1 [Compound 145, 8-(4-bromo-1-methyl-1H-pyrazol-3-yl)-N-tert-butyl-1-(3,5-dimethoxyphenyl)-7-methoxy-N-methyl-1,4-dihydrochromeno[4,3-c]pyrazole-3-carboxamide] | 101 to 500 | < 10
19 | COc1cc2c(cc1-c1cnn(CC(N)=O)c1)-c1c(c(C(=O)N3CCOCC3(C)C)nn1-c1cc(F)cc(F)c1)CO2 [Compound 99, 2-(4-(1-(3,5-difluorophenyl)-3-(3,3-dimethylmorpholine-4-carbonyl)-7-methoxy-1,4-dihydrochromeno[4,3-c]pyrazol-8-yl)-1H-pyrazol-1-yl)acetamide] | 10 to 100 | < 10
